# PubChem BioAssay (NCI)
#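 Protocol summary: plate cells (96-well), add compound at 5 concentrations, incubate 48 h, interpolate endpoints linearly. TGI marks complete inhibition of growth.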
# Columns and labels:
# Assay in all cases: DTP human tumour cell line panel, 48 h
# OVCAR-3 ovarian = system: OVCAR-3 ovarian
# SR leukemia = system: SR leukemia
# MOLT-4 leukemia = system: MOLT-4 leukemia
# NCI-H522 lung = system: NCI-H522 lung
# NCI-H226 lung = system: NCI-H226 lung
# EKVX NSCLC = system: EKVX NSCLC
# SK-MEL-5 melanoma = system: SK-MEL-5 melanoma
# 786-0 renal = system: 786-0 renal
# TK-10 renal = system: TK-10 renal
# UACC-62 melanoma = system: UACC-62 melanoma
# SF-295 CNS = system: SF-295 CNS
# HT29 colon = system: HT29 colon
# UO-31 renal = system: UO-31 renal
# HCC-2998 colon = system: HCC-2998 colon
# SF-268 CNS = system: SF-268 CNS
# HS 578T breast = system: HS 578T breast
# SN12C renal = system: SN12C renal
# U251 CNS = system: U251 CNS
# SK-OV-3 ovarian = system: SK-OV-3 ovarian
# MDA-N = system: MDA-N
# DU-145 prostate = system: DU-145 prostate
# NCI-H460 lung = system: NCI-H460 lung
# HCT-116 colon = system: HCT-116 colon
# K-562 leukemia = system: K-562 leukemia
# ACHN renal = system: ACHN renal
# M14 melanoma = system: M14 melanoma
# SNB-75 CNS = system: SNB-75 CNS
# OVCAR-8 ovarian = system: OVCAR-8 ovarian
# CCRF-CEM leukemia = system: CCRF-CEM leukemia
# OVCAR-4 ovarian = system: OVCAR-4 ovarian
# IGROV1 ovarian = system: IGROV1 ovarian
# KM12 colon = system: KM12 colon
# LOX IMVI melanoma = system: LOX IMVI melanoma
# SW-620 colon = system: SW-620 colon
# NCI-H23 lung = system: NCI-H23 lung
# RPMI-8226 leukemia = system: RPMI-8226 leukemia
# HOP-92 NSCLC = system: HOP-92 NSCLC
# HOP-62 NSCLC = system: HOP-62 NSCLC
# T-47D breast = system: T-47D breast
# MDA-MB-231 breast = system: MDA-MB-231 breast
# MDA-MB-435 = system: MDA-MB-435
# NCI/ADR-RES ovarian = system: NCI/ADR-RES ovarian
# SK-MEL-28 melanoma = system: SK-MEL-28 melanoma
# PC-3 prostate = system: PC-3 prostate
# MALME-3M melanoma = system: MALME-3M melanoma
# UACC-257 melanoma = system: UACC-257 melanoma
# SNB-19 CNS = system: SNB-19 CNS
# RXF 393 renal = system: RXF 393 renal
# SF-539 CNS = system: SF-539 CNS
# CAKI-1 renal = system: CAKI-1 renal
# HCT-15 colon = system: HCT-15 colon
# BT-549 breast = system: BT-549 breast
# A498 renal = system: A498 renal
# COLO 205 colon = system: COLO 205 colon
# HL-60(TB) leukemia = system: HL-60(TB) leukemia
# A549 NSCLC = system: A549 NSCLC
# SK-MEL-2 melanoma = system: SK-MEL-2 melanoma
# MCF7 breast = system: MCF7 breast
# OVCAR-5 ovarian = system: OVCAR-5 ovarian
smiles,measurement,setting,value
CC(C)c1cc2c(cc1S(=O)(=O)O)[C@@]1(C)CCC[C@@](C)(C(=O)O)C1CC2 (stereo partly drawn),TGI,OVCAR-3 ovarian,> 100 µM
same,TGI,SR leukemia,> 100 µM
same,TGI,MOLT-4 leukemia,> 100 µM
same,TGI,NCI-H522 lung,> 100 µM
same,TGI,NCI-H226 lung,> 100 µM
same,TGI,EKVX NSCLC,> 100 µM
same,TGI,SK-MEL-5 melanoma,> 100 µM
same,TGI,786-0 renal,> 100 µM
same,TGI,TK-10 renal,> 100 µM
same,TGI,UACC-62 melanoma,> 100 µM
same,TGI,SF-295 CNS,> 100 µM
same,TGI,HT29 colon,> 100 µM
same,TGI,UO-31 renal,> 100 µM
same,TGI,HCC-2998 colon,> 100 µM
same,TGI,SF-268 CNS,> 100 µM
same,TGI,HS 578T breast,> 100 µM
same,TGI,SN12C renal,> 100 µM
same,TGI,U251 CNS,> 100 µM
same,TGI,SK-OV-3 ovarian,> 100 µM
same,TGI,MDA-N,> 100 µM
same,TGI,DU-145 prostate,> 100 µM
same,TGI,NCI-H460 lung,> 100 µM
same,TGI,HCT-116 colon,> 100 µM
same,TGI,K-562 leukemia,> 100 µM
same,TGI,ACHN renal,> 100 µM
same,TGI,M14 melanoma,> 100 µM
same,TGI,SNB-75 CNS,> 100 µM
same,TGI,OVCAR-8 ovarian,> 100 µM
same,TGI,CCRF-CEM leukemia,> 100 µM
same,TGI,OVCAR-4 ovarian,> 100 µM
same,TGI,IGROV1 ovarian,> 100 µM
same,TGI,KM12 colon,> 100 µM
same,TGI,LOX IMVI melanoma,> 100 µM
same,TGI,SW-620 colon,> 100 µM
same,TGI,NCI-H23 lung,> 100 µM
same,TGI,RPMI-8226 leukemia,> 100 µM
same,TGI,HOP-92 NSCLC,> 100 µM
same,TGI,HOP-62 NSCLC,> 100 µM
same,TGI,T-47D breast,> 100 µM
same,TGI,MDA-MB-231 breast,> 100 µM
same,TGI,MDA-MB-435,> 100 µM
same,TGI,NCI/ADR-RES ovarian,> 100 µM
same,TGI,SK-MEL-28 melanoma,> 100 µM
same,TGI,PC-3 prostate,> 100 µM
same,TGI,MALME-3M melanoma,> 100 µM
same,TGI,UACC-257 melanoma,> 100 µM
same,TGI,SNB-19 CNS,> 100 µM
same,TGI,RXF 393 renal,> 100 µM
same,TGI,SF-539 CNS,> 100 µM
same,TGI,CAKI-1 renal,> 100 µM
same,TGI,HCT-15 colon,> 100 µM
same,TGI,BT-549 breast,> 100 µM
same,TGI,A498 renal,> 100 µM
same,TGI,COLO 205 colon,> 100 µM
same,TGI,HL-60(TB) leukemia,> 100 µM
same,TGI,A549 NSCLC,> 100 µM
same,TGI,SK-MEL-2 melanoma,> 100 µM
same,TGI,MCF7 breast,> 100 µM
same,TGI,OVCAR-5 ovarian,> 100 µM
O=C(/C=C/c1ccccc1)C[C@@H](O)C[C@@H]1CC=CC(=O)O1,TGI,OVCAR-3 ovarian,13.3 µM
same,TGI,SR leukemia,11.5 µM
same,TGI,MOLT-4 leukemia,12.5 µM
same,TGI,NCI-H522 lung,6.9 µM
same,TGI,NCI-H226 lung,> 100 µM
same,TGI,EKVX NSCLC,73.1 µM
same,TGI,SK-MEL-5 melanoma,26.6 µM
same,TGI,786-0 renal,12 µM
same,TGI,TK-10 renal,28.9 µM
same,TGI,UACC-62 melanoma,14.5 µM
same,TGI,SF-295 CNS,28 µM
same,TGI,HT29 colon,16.8 µM
same,TGI,UO-31 renal,28.9 µM
same,TGI,HCC-2998 colon,15.7 µM
same,TGI,SF-268 CNS,27.7 µM
same,TGI,HS 578T breast,> 87.3 µM
same,TGI,SN12C renal,25.2 µM
same,TGI,U251 CNS,21.7 µM
same,TGI,SK-OV-3 ovarian,38.7 µM
same,TGI,MDA-N,14.3 µM
same,TGI,DU-145 prostate,> 60.5 µM
same,TGI,NCI-H460 lung,39.5 µM
same,TGI,HCT-116 colon,6.38 µM
same,TGI,K-562 leukemia,7 µM
same,TGI,ACHN renal,30.5 µM
same,TGI,M14 melanoma,23.5 µM
same,TGI,SNB-75 CNS,> 53.7 µM
same,TGI,OVCAR-8 ovarian,18.9 µM
same,TGI,CCRF-CEM leukemia,5.12 µM
same,TGI,OVCAR-4 ovarian,45.7 µM
same,TGI,IGROV1 ovarian,31.2 µM
same,TGI,KM12 colon,16.5 µM
same,TGI,LOX IMVI melanoma,7.02 µM
same,TGI,SW-620 colon,5.53 µM
same,TGI,NCI-H23 lung,28.6 µM
same,TGI,RPMI-8226 leukemia,> 24.5 µM
same,TGI,HOP-92 NSCLC,16 µM
same,TGI,HOP-62 NSCLC,33.7 µM
same,TGI,T-47D breast,42.2 µM
same,TGI,MDA-MB-231 breast,27.5 µM
same,TGI,MDA-MB-435,26.6 µM
same,TGI,NCI/ADR-RES ovarian,> 85.5 µM
same,TGI,SK-MEL-28 melanoma,24.9 µM
same,TGI,PC-3 prostate,31.8 µM
same,TGI,MALME-3M melanoma,30.6 µM
same,TGI,UACC-257 melanoma,31.1 µM
same,TGI,SNB-19 CNS,35.7 µM
same,TGI,RXF 393 renal,> 23 µM
same,TGI,SF-539 CNS,14.9 µM
same,TGI,CAKI-1 renal,27.6 µM
same,TGI,HCT-15 colon,25.4 µM
same,TGI,BT-549 breast,27.7 µM
same,TGI,A498 renal,30.9 µM
same,TGI,COLO 205 colon,17.8 µM
same,TGI,HL-60(TB) leukemia,5.06 µM
same,TGI,A549 NSCLC,52.2 µM
same,TGI,SK-MEL-2 melanoma,33.9 µM
same,TGI,MCF7 breast,11.4 µM
same,TGI,OVCAR-5 ovarian,36.4 µM
